Patent publication US20040081675A1, “Cosmetic formulations containing flavonoid derivatives” (priority 2001, published 2004)

Assays:
[1] = UV absorption properties (absorption maximum, shoulder, absorption coefficient); assay type: physicochemical
Source text: Tiliroside absorbs in the UV-B region, i.e. in the wavelength range between 290 and 320 nm, with an absorption maximum at λmax=316 nm, and additionally in the UV-A region, i.e. in the wavelength range between 320 and 400 nm, with an absorption shoulder at λsh=349 nm. The absorption coefficient ε at λmax=316 nm is ε=23260 and at λsh=349 nm is ε=13500.
The absorption coefficient at this wavelength is 23420.

[2] = Inherent colour of the substance; assay type: physicochemical
Source text: The weak inherent colour is, for example, a major advantage if an inherent colour of the ingredients is undesired in the products for aesthetic reasons.

[3] = assay type: physicochemical
Source text: The invention furthermore relates to the stabilisation of UV filters. A known and effective class of light-protection filter substances is formed by the dibenzoylmethane derivatives. However, it is disadvantageous that these substances are decomposed very easily by UV light and their protective properties are thus lost. An example of a commercially available light-protection filter from this class of compounds which may be mentioned is 4-(tert-butyl)-4′-methoxydibenzoylmethane, which has the structure shown below. [drawing 22]
Tiliroside can be used for stabilisation here as the pure substance or in the form of a plant extract. In a preferred embodiment, tiliroside is used in the form of a plant extract, a purified plant extract or in the form of the pure substance prepared from the plant extract.

## O=C(C=Cc1ccc(O)cc1)OC[C@H]1O[C@@H](Oc2c(-c3ccc(O)cc3)oc3cc(O)cc(O)c3c2=O)[C@H](O)[C@@H](O)[C@@H]1O [Tiliroside, kaempferol 3-(6″-p-coumarylglucoside)]
[1]; UV-A region (320 to 400 nm)
  absorption shoulder λsh: 349 nm
[1]; UV-A region, tiliroside compared with Eusolex 6300
  absorption in the UV-A region (in words): significantly better absorption properties in the UVA region
[1]; UV-B region
  absorption maximum λmax: 316 nm
[1]; at the absorption maximum in the UV-B region (tiliroside 316 nm, Eusolex 6300 300 nm)
  absorption coefficient ε at λmax: 23260
[1]; at the shoulder λsh=349 nm, UV-A region
  absorption coefficient ε at λsh: 13500
[2]
  inherent colour: only a weak inherent colour
[3]
  stabilising action for dibenzoylmethanes: particularly high stabilising action
